# The source made the active and inactive calls. The rule behind the calls is not given here.
# Experiments:
# Rattus norvegicus [1] = assay: Antihyperglycemic activity in Wistar albino rat streptozotocin-induced diabetic model assessed as reduction of blood glucose level at 30 mg/kg, po after 5 hrs (reference value: 372.2 +/- 16.6 mg/dl); assay type: functional
# Rattus norvegicus [2] = assay: Antihyperglycemic activity in Wistar albino rat streptozotocin-induced diabetic model assessed as reduction of blood glucose level at 30 mg/kg, po after 4 hrs (reference value: 373.5 +/- 15.6 mg/dl); assay type: functional
# Rattus norvegicus [3] = assay: Antihyperglycemic activity in Wistar albino rat streptozotocin-induced diabetic model assessed as reduction of blood glucose level at 30 mg/kg, po after 3 hrs (reference value: 384.33 +/- 17.33 mg/dl); assay type: functional
# Rattus norvegicus [4] = assay: Antihyperglycemic activity in Wistar albino rat streptozotocin-induced diabetic model assessed as reduction of blood glucose level at 30 mg/kg, po after 2 hrs (reference value: 386.66 +/- 17.5 mg/dl); assay type: functional
# Rattus norvegicus [5] = assay: Antihyperglycemic activity in Wistar albino rat streptozotocin-induced diabetic model assessed as reduction of blood glucose level at 20 mg/kg, po after 4 hrs (reference value: 373.5 +/- 15.6 mg/dl); assay type: functional
# Rattus norvegicus [6] = assay: Antihyperglycemic activity in Wistar albino rat streptozotocin-induced diabetic model assessed as reduction of blood glucose level at 20 mg/kg, po after 1 hr (reference value: 389.16 +/- 19 mg/dl); assay type: functional
# Rattus norvegicus [7] = assay: Hypoglycemic activity in Wistar albino rat assessed as reduction of blood glucose level at 60 mg/kg, po after 5 hrs (reference value: 73.8 +/- 4.5 mg/dl); assay type: ADME, organism-based; set-up: dose 60 mg/kg, route oral; details: in vivo
# Rattus norvegicus [8] = assay: Hypoglycemic activity in Wistar albino rat assessed as reduction of blood glucose level at 60 mg/kg, po after 4 hrs (reference value: 75.8 +/- 4.7 mg/dl); assay type: ADME, organism-based; set-up: dose 60 mg/kg, route oral; details: in vivo
# Rattus norvegicus [9] = assay: Hypoglycemic activity in Wistar albino rat assessed as reduction of blood glucose level at 30 mg/kg, po after 6 hrs (reference value: 73.3 +/- 4.4 mg/dl); assay type: ADME, organism-based; set-up: dose 30 mg/kg, route oral; details: in vivo
# Rattus norvegicus [10] = assay: Hypoglycemic activity in Wistar albino rat assessed as reduction of blood glucose level at 30 mg/kg, po after 5 hrs (reference value: 73.8 +/- 4.5 mg/dl); assay type: ADME, organism-based; set-up: dose 30 mg/kg, route oral; details: in vivo
# Rattus norvegicus [11] = assay: Hypoglycemic activity in Wistar albino rat assessed as reduction of blood glucose level at 30 mg/kg, po after 3 hrs (reference value: 76.3 +/- 5.4 mg/dl); assay type: ADME, organism-based; set-up: dose 30 mg/kg, route oral; details: in vivo
# Rattus norvegicus [12] = assay: Hypoglycemic activity in Wistar albino rat assessed as reduction of blood glucose level at 30 mg/kg, po after 2 hrs (reference value: 76.5 +/- 3.7 mg/dl); assay type: ADME, organism-based; set-up: dose 30 mg/kg, route oral; details: in vivo
# Rattus norvegicus [13] = assay: Hypoglycemic activity in Wistar albino rat assessed as reduction of blood glucose level at 20 mg/kg, po after 6 hrs (reference value: 73.3 +/- 4.4 mg/dl); assay type: ADME, organism-based; set-up: dose 20 mg/kg, route oral; details: in vivo
# Rattus norvegicus [14] = assay: Hypoglycemic activity in Wistar albino rat assessed as reduction of blood glucose level at 20 mg/kg, po after 2 hrs (reference value: 76.5 +/- 3.7 mg/dl); assay type: ADME, organism-based; set-up: dose 20 mg/kg, route oral; details: in vivo
# Rattus norvegicus [15] = assay: Hypoglycemic activity in Wistar albino rat assessed as reduction of blood glucose level at 20 mg/kg, po after 1 hr (reference value: 71.26 +/- 4.3 mg/dl); assay type: ADME, organism-based; set-up: dose 20 mg/kg, route oral; details: in vivo
# Rattus norvegicus [16] = assay: Hypoglycemic activity in Wistar albino rat assessed as reduction of blood glucose level at 20 mg/kg, po after 5 hrs (reference value: 73.8 +/- 4.5 mg/dl); assay type: ADME, organism-based; set-up: dose 20 mg/kg, route oral; details: in vivo
# Rattus norvegicus [17] = assay: Hypoglycemic activity in Wistar albino rat assessed as reduction of blood glucose level at 20 mg/kg, po after 3 hrs (reference value: 76.3 +/- 5.4 mg/dl); assay type: ADME, organism-based; set-up: dose 20 mg/kg, route oral; details: in vivo
# Rattus norvegicus [18] = assay: Hepatoprotective activity in Wistar albino rat assessed as protection against streptozotocin-induced increase in AST, ALT and ALP level in serum at 30 mg/kg, po qd for 30 days; assay type: functional, organism-based; set-up: dose 30 mg/kg
# Rattus norvegicus [19] = assay: Hepatotoxicity in Wistar albino rat assessed as AST, ALT and ALP level in serum at 30 mg/kg, po qd for 30 days; assay type: toxicity, organism-based; set-up: dose 30 mg/kg, route oral; details: in vivo, 720 h
# Rattus norvegicus [20] = assay: Renalprotective activity in Wistar albino rat assessed as protection against streptozotocin-induced increase in urea level in blood at 30 mg/kg, po qd for 30 days; assay type: functional
# Rattus norvegicus [21] = assay: Renaltoxicity in Wistar albino rat assessed as creatinine level in blood at 30 mg/kg, po qd for 30 days; assay type: organism-based; set-up: dose 30 mg/kg, route oral; details: in vivo, 720 h
# Rattus norvegicus [22] = assay: Renaltoxicity in Wistar albino rat assessed as urea level in blood at 30 mg/kg, po qd for 30 days; assay type: organism-based; set-up: dose 30 mg/kg, route oral; details: in vivo, 720 h
# Rattus norvegicus [23] = assay: Antiatherosclerosis activity in Wistar albino rat assessed as protection from atherogenicity at 30 mg/kg, po qd for 30 days relative to control; assay type: functional
# Rattus norvegicus [24] = assay: Antihyperlipidemic activity in Wistar albino rat streptozotocin-induced diabetic model assessed as reduction of serum LDL level at 30 mg/kg, po qd for 30 days; assay type: functional, organism-based; set-up: dose 30 mg/kg
# Rattus norvegicus [25] = assay: Antihyperlipidemic activity in Wistar albino rat streptozotocin-induced diabetic model assessed as reduction of serum total cholesterol level at 30 mg/kg, po qd for 30 days; assay type: functional, organism-based; set-up: dose 30 mg/kg
# Rattus norvegicus [26] = assay: Antihyperlipidemic activity in Wistar albino rat streptozotocin-induced diabetic model assessed as reduction of serum triglyceride level at 30 mg/kg, po qd for 30 days; assay type: functional, organism-based; set-up: dose 30 mg/kg
# Rattus norvegicus [27] = assay: Antihyperglycemic activity in Wistar albino rat streptozotocin-induced diabetic model assessed as increase of body weight at 30 mg/kg, po qd measured on day 15 (reference value: -30.3%); assay type: functional
# Rattus norvegicus [28] = assay: Toxicity in Wistar albino rat assessed as increase of body weight at 30 mg/kg, po qd measured on day 30 (reference value: 8.82%); assay type: organism-based; set-up: dose 30 mg/kg, route oral; details: in vivo
# Rattus norvegicus [29] = assay: Antihyperglycemic activity in Wistar albino rat streptozotocin-induced diabetic model assessed as reduction of fasting blood glucose level at 30 mg/kg, po qd measured on day 1 (reference value: 416.4 +/- 24.2 mg/dl); assay type: functional
# Rattus norvegicus [30] = assay: Hypoglycemic activity in Wistar albino rat assessed as reduction of fasting blood glucose level at 30 mg/kg, po qd measured on day 1 (reference value: 89 +/- 6.4 mg/dl); assay type: ADME, organism-based; set-up: dose 30 mg/kg, route oral; details: in vivo
# Rattus norvegicus [31] = assay: Antihyperglycemic activity in glucose loaded Wistar albino rat streptozotocin-induced diabetic model assessed as reduction of blood glucose level at 30 mg/kg, po after 1 hr by oral glucose tolerance test; assay type: functional, organism-based; set-up: dose 30 mg/kg
# Rattus norvegicus [32] = assay: Antihyperglycemic activity in Wistar albino rat streptozotocin-induced diabetic model assessed as reduction of blood glucose level at 60 mg/kg, po after 6 hrs (reference value: 372.5 +/- 15.6 mg/dl); assay type: functional
# Rattus norvegicus [33] = assay: Antihyperglycemic activity in Wistar albino rat streptozotocin-induced diabetic model assessed as reduction of blood glucose level at 60 mg/kg, po after 4 hrs (reference value: 373.5 +/- 15.6 mg/dl); assay type: functional
# Rattus norvegicus [34] = assay: Antihyperglycemic activity in Wistar albino rat streptozotocin-induced diabetic model assessed as reduction of blood glucose level at 60 mg/kg, po after 3 hrs (reference value: 384.33 +/- 17.33 mg/dl); assay type: functional
# Rattus norvegicus [35] = assay: Antihyperglycemic activity in Wistar albino rat streptozotocin-induced diabetic model assessed as reduction of blood glucose level at 30 mg/kg, po after 6 hrs (reference value: 372.5 +/- 15.6 mg/dl); assay type: functional
smiles,measurement,setting,value
Oc1ccccc1CNc1ccc(NCc2ccccc2O)cc1,Activity,Rattus norvegicus [1],172.8 mg/dL
same,Activity,Rattus norvegicus [2],215.6 mg/dL
same,Activity,Rattus norvegicus [3],248.8 mg/dL
same,Activity,Rattus norvegicus [4],252.1 mg/dL
same,Activity,Rattus norvegicus [5],265.16 mg/dL
same,Activity,Rattus norvegicus [6],357.5 mg/dL
same,Activity,Rattus norvegicus [7],78 mg/dL
same,Activity,Rattus norvegicus [8],79.3 mg/dL
same,Activity,Rattus norvegicus [9],72.5 mg/dL
same,Activity,Rattus norvegicus [10],72.8 mg/dL
same,Activity,Rattus norvegicus [11],74.16 mg/dL
same,Activity,Rattus norvegicus [12],73.66 mg/dL
same,Activity,Rattus norvegicus [13],70 mg/dL
same,Activity,Rattus norvegicus [14],73.16 mg/dL
same,Activity,Rattus norvegicus [15],74.12 mg/dL
same,Activity,Rattus norvegicus [16],70.1 mg/dL
same,Activity,Rattus norvegicus [17],74.16 mg/dL
same,Activity,Rattus norvegicus [18],Active
same,Activity,Rattus norvegicus [19],Non-toxic
same,Activity,Rattus norvegicus [20],54.02 mg/dL
same,Activity,Rattus norvegicus [21],0.37 mg/dL
same,Activity,Rattus norvegicus [22],43.25 mg/dL
same,Activity,Rattus norvegicus [23],70.1%
same,Activity,Rattus norvegicus [24],Active
same,Activity,Rattus norvegicus [25],Active
same,Activity,Rattus norvegicus [26],Active
same,Activity,Rattus norvegicus [27],8.57%
same,Activity,Rattus norvegicus [28],2.94%
same,Activity,Rattus norvegicus [29],333 mg/dL
same,Activity,Rattus norvegicus [30],90.6 mg/dL
same,Activity,Rattus norvegicus [31],Active
same,Activity,Rattus norvegicus [32],36.8 mg/dL
same,Activity,Rattus norvegicus [33],54.8 mg/dL
same,Activity,Rattus norvegicus [34],61.4 mg/dL
same,Activity,Rattus norvegicus [35],102 mg/dL

# Source: ChEMBL document CHEMBL2412969, “Antihyperglycemic and antihyperlipidemic activities of 2-(4-[(2-hydroxybenzyl) amino]-phenyl amino-methyl)-phenol in STZ induced diabetic rats” (Eur J Med Chem, 2013)
